Results: the supplement of paper PMC7600603

Tests used:
DLD1 NRF2-GOF [1] = settings: 72 h; CellTiter-Glo viability
Procedure, shortened: (§1)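 DLD1 colorectal cancer cells, an isogenic pair either NRF2 wild-type or carrying a CRISPR gain-of-function, were cultured in DMEM with 10% FBS and treated in 384-well plates with library compounds at 5 concentrations across a 10,000-fold range. CellTiter-Glo viability was read on a Pherastar FS reader after 72 h and normalised to vehicle wells and 100-μM positive-control wells. Four-parameter logistic dose-response fits were applied. EC50 and drug sensitivity score, a normalised area under the curve, were taken from these fits.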

DLD1 NRF2-WT [2] = settings: 72 h; CellTiter-Glo viability
Procedure, shortened: as §1

DLD1 NRF2-GOF [3] = assay: TC50 cytotoxicity; higher = less toxic; settings: 72 h; CellTox Green cytotoxicity
Procedure, shortened: (§2)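 After growth in DMEM with 10% FBS, NRF2 wild-type and CRISPR-edited isogenic DLD1 cells were seeded in 384-well plates and given library compounds at 5 concentrations across a 10,000-fold range. Fluorescence from CellTox Green was taken on a Pherastar FS reader after 72 h and normalised against vehicle wells and 100-μM positive-control wells. From logistic dose-response fits of cytotoxicity came the TC50 and the drug sensitivity score, a normalised area under the curve.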

DLD1 NRF2-WT [4] = assay: TC50 cytotoxicity; higher = less toxic; settings: 72 h; CellTox Green cytotoxicity
Procedure, shortened: as §2

DLD1 NRF2-GOF [5] = assay: drug sensitivity score (DSS) cytotoxicity (DSS score); higher = more toxic; extreme values may be limits of the assay; settings: 72 h; CellTox Green cytotoxicity
Procedure, shortened: as §2

DLD1 NRF2-WT [6] = assay: as above; settings: 72 h; CellTox Green cytotoxicity
Procedure, shortened: as §2

DLD1 NRF2-GOF [7] = assay: drug sensitivity score (DSS) viability (DSS score); higher = more sensitive; extreme values may be limits of the assay; settings: 72 h; CellTiter-Glo viability
Procedure, shortened: as §1

DLD1 NRF2-WT [8] = assay: as above; settings: 72 h; CellTiter-Glo viability
Procedure, shortened: as §1

Compound | EC50 viability (DLD1 NRF2-GOF [1]) [nM] | EC50 viability (DLD1 NRF2-WT [2]) [nM] | TC50 cytotoxicity (DLD1 NRF2-GOF [3]) [nM] | TC50 cytotoxicity (DLD1 NRF2-WT [4]) [nM] | drug sensitivity score (DLD1 NRF2-GOF [5]) | drug sensitivity score (DLD1 NRF2-WT [6]) | drug sensitivity score (DLD1 NRF2-GOF [7]) | drug sensitivity score (DLD1 NRF2-WT [8])
NC1(c2ccc(-c3nc4ccn5c(=O)[nH]nc5c4cc3-c3ccccc3)cc2)CCC1 [MK-2206] | > 1000 | 52.2 | > 1000 | > 1000 | 0 | 0 | 0.7 | 4.3
Cc1ccc(NC(=O)c2ccc(CN3CCN(C)CC3)cc2)cc1Nc1nc(-c2cccnc2)cs1 [Masitinib] | 163 | 1800 | > 10000 | > 10000 | 0 | 0 | 14.3 | 6.7
CC(=O)O[C@]1(C(C)=O)CC[C@H]2[C@@H]3C=C(C)C4=CC(=O)CC[C@]4(C)[C@H]3CC[C@@]21C [Megestrol acetate] | > 10000 | > 10000 | > 10000 | > 10000 | 0 | 0 | 2.4 | 0
CCN(CC)CCCC(C)Nc1c2ccc(Cl)cc2nc2ccc(OC)cc12 (stereo not drawn) [Mepacrine] | 1510 | 1210 | 7070 | 5030 | 9.9 | 11.7 | 18.2 | 19.4
Sc1ncnc2nc[nH]c12 [Mercaptopurine] | 1720 | 4290 | > 10000 | > 10000 | 0 | 0 | 6.5 | 2.1
Cc1ccc(C(=O)Nc2ccc(Oc3cc4cnn(C)c4cc3-c3cn[nH]c3)c(F)c2)c(=O)n1-c1ccc(F)cc1 [Merestinib] | 98.6 | 207 | > 1000 | > 1000 | 0 | 0 | 7.9 | 4.2
CN(Cc1cnc2nc(N)nc(N)c2n1)c1ccc(C(=O)N[C@@H](CCC(=O)O)C(=O)O)cc1 [Methotrexate] | 29.7 | 35.5 | > 5000 | > 5000 | 0 | 0 | 23.8 | 23.4
CO[C@@H]1[C@H](N(C)C(=O)c2ccccc2)C[C@H]2O[C@]1(C)n1c3ccccc3c3c4c(c5c6ccccc6n2c5c31)C(=O)NC4 [Midostaurin] | 499 | 880 | 801 | 686 | 12.9 | 12.4 | 12.4 | 9.8
CNC(=O)c1nn(C)c2c1C(C)(C)Cc1cnc(Nc3ccc(N4CCN(C)CC4)cc3)nc1-2 [Milciclib] | 1190 | 926 | > 10000 | > 10000 | 0 | 0.5 | 8.5 | 10.8
Clc1ccc(C(c2ccccc2Cl)C(Cl)Cl)cc1 (stereo not drawn) [Mitotane] | > 10000 | > 10000 | > 10000 | > 10000 | 0 | 0 | 1.8 | 0
O=C1c2c(O)ccc(O)c2C(=O)c2c(NCCNCCO)ccc(NCCNCCO)c21 [Mitoxantrone] | 96.9 | 67.4 | > 1000 | > 1000 | 0 | 0 | 10.1 | 12.3
N#CCNC(=O)c1ccc(-c2ccnc(Nc3ccc(N4CCOCC4)cc3)n2)cc1 [Momelotinib] | 3250 | 2800 | > 10000 | > 10000 | 0.1 | 0.2 | 2.8 | 4.1
CCCN(CCC)C(=O)C1=Cc2ccc(-c3ccc(C(=O)N4CCCC4)cc3)cc2N=C(N)C1 [Motolimod] | 1330 | 937 | > 10000 | > 10000 | 0 | 0 | 3.6 | 4.4
O=C(Nc1ccc(OC(F)(F)Cl)cc1)c1cnc(N2CC[C@@H](O)C2)c(-c2cc[nH]n2)c1 [NVP-ABL001] | > 1000 | > 1000 | > 1000 | > 1000 | 0 | 0 | 2.3 | 0.1
Nc1ncnc2c1c(-c1cccc(OCc3ccccc3)c1)cn2[C@H]1C[C@@H](CN2CCC2)C1 [NVP-AEW541] | 3120 | 1770 | > 10000 | > 10000 | 1.5 | 0.1 | 5 | 6.8
CCN1CCN(c2ccc(Nc3cc(N(C)C(=O)Nc4c(Cl)c(OC)cc(OC)c4Cl)ncn3)cc2)CC1 [NVP-BGJ398] | > 1000 | > 1000 | > 1000 | > 1000 | 0 | 0 | 0 | 0
COc1ccc(-c2ccc3ncc4c(c3c2)n(-c2ccc(N3CCNCC3)c(C(F)(F)F)c2)c(=O)n4C)cn1 [NVP-BGT226] | 35 | 26.4 | 359 | 338 | 4.1 | 4.4 | 16.2 | 17.5
Cc1ccc(C(=O)Nc2cccc(C(F)(F)F)c2)cc1Nc1nc(-c2cccnc2)nc2c1cnn2C [NVP-BHG712] | > 10000 | > 10000 | > 10000 | > 10000 | 0 | 0 | 0.9 | 2.2
CN[C@@H](C)C(=O)N[C@H](C(=O)N1CCC[C@H]1c1nc(C(=O)c2ccc(F)cc2)cs1)C1CCCCC1 [NVP-LCL161] | 2360 | > 25000 | > 25000 | > 25000 | 0 | 0 | 4.8 | 2.1
CC(=O)c1cc2c(o1)C(=O)c1ccccc1C2=O [Napabucasin] | 210 | 361 | 465 | 617 | 19.6 | 16.1 | 23.9 | 21
CCOc1cc2ncc(C#N)c(Nc3ccc(OCc4ccccn4)c(Cl)c3)c2cc1NC(=O)/C=C/CN(C)C [Neratinib] | 305 | 102 | > 1000 | > 1000 | 0 | 0 | 2.2 | 5.7
